Experimental data reported in ChEMBL document CHEMBL5154761, “Design, synthesis, and evaluation of 9-(pyrimidin-2-yl)-9H-carbazole derivatives disrupting mitochondrial homeostasis in human lung adenocarcinoma” (Eur J Med Chem, 2022).
Active and inactive are the calls of the source. The calls are words filed in the database; no cut-off is given here.

How the values were obtained:
A549 [1] = assay: Cytotoxicity against human A549 cells assessed as cell growth inhibition incubated for 48 hrs by MTT assay; assay type: functional, cell-based; conditions: A549, 48 h
A549 [2] = assay: Cytotoxicity against human A549 cells assessed as cell growth inhibition at 10 uM incubated for 48 hrs by MTT assay relative to control; assay type: functional
A549 [3] = assay: Induction of cell cycle arrest in human A549 cells assessed as accumulation at G2/M phase at 10 uM incubated for 48 hrs by PI staining based flow cytometry analysis; assay type: functional
A549 [4] = assay: Induction of cell cycle arrest in human A549 cells assessed as accumulation at G2/M phase incubated for 48 hrs by PI staining based flow cytometry analysis; assay type: functional; conditions: dose <= 1.0 µM, DDE = dose-dependent effect
[5] = Antiproliferative activity against rat NRK-52E cells assessed as cell growth inhibition incubated for 48 hrs by MTT assay; assay type: toxicity, cell-based
A549 [6] = assay: Induction of cell cycle arrest in human A549 cells assessed as accumulation at Go/G1 phase at 0.5 uM incubated for 48 hrs by PI staining based flow cytometry analysis (reference value: 62.45); assay type: functional
A549 [7] = assay: Induction of cell cycle arrest in human A549 cells assessed as accumulation at Go/G1 phase at 1 uM incubated for 48 hrs by PI staining based flow cytometry analysis (reference value: 62.45); assay type: functional
A549 [8] = assay: Induction of cell cycle arrest in human A549 cells assessed as accumulation at S phase at 0.5 uM incubated for 48 hrs by PI staining based flow cytometry analysis (reference value: 12.85%); assay type: functional
A549 [9] = assay: Induction of cell cycle arrest in human A549 cells assessed as accumulation at S phase at 1 uM incubated for 48 hrs by PI staining based flow cytometry analysis (reference value: 12.85%); assay type: functional
A549 [10] = assay: Induction of cell cycle arrest in human A549 cells assessed as accumulation at G2/M phase at 0.5 uM incubated for 48 hrs by PI staining based flow cytometry analysis (reference value: 18.14); assay type: functional
A549 [11] = assay: Induction of cell cycle arrest in human A549 cells assessed as accumulation at G2/M phase at 1 uM incubated for 48 hrs by PI staining based flow cytometry analysis (reference value: 18.14); assay type: functional
A549 [12] = assay: Induction of cell cycle arrest in human A549 cells assessed as increase in cyclin B1 expression upto 1 uM incubated for 48 hrs by Western blot analysis; assay type: functional, cell-based
A549 [13] = assay: Induction of cell cycle arrest in human A549 cells assessed as decrease in cyclin D1 expression upto 1 uM incubated for 48 hrs by Western blot analysis; assay type: functional, cell-based
A549 [14] = assay: Induction of DNA damage in human A549 cells assessed as upregulation of gamma H2AX incubated for 48 hrs by Western blot analysis; assay type: functional, cell-based; conditions: dose <= 1.0 µM, DDE = dose-dependent effect
A549 [15] = assay: Induction of apoptosis in human A549 cells assessed as viable cells at 0.5 uM incubated for 48 hrs by Annexin V-FITC/propidium iodide staining based flow cytometry analysis (reference value: 97.3%); assay type: functional; conditions: read-out: Activity
A549 [16] = assay: Induction of apoptosis in human A549 cells assessed as viable cells at 1 uM incubated for 48 hrs by Annexin V-FITC/propidium iodide staining based flow cytometry analysis (reference value: 97.3%); assay type: functional; conditions: read-out: Activity
A549 [17] = assay: Induction of apoptosis in human A549 cells assessed as early apoptotic cells at 0.5 uM incubated for 48 hrs by Annexin V-FITC/propidium iodide staining based flow cytometry analysis (reference value: 1.46%); assay type: functional
A549 [18] = assay: Induction of apoptosis in human A549 cells assessed as early apoptotic cells at 1 uM incubated for 48 hrs by Annexin V-FITC/propidium iodide staining based flow cytometry analysis (reference value: 1.46%); assay type: functional
A549 [19] = assay: Induction of apoptosis in human A549 cells assessed as late apoptotic cells at 0.5 uM incubated for 48 hrs by Annexin V-FITC/propidium iodide staining based flow cytometry analysis (reference value: 1.00%); assay type: functional
A549 [20] = assay: Induction of apoptosis in human A549 cells assessed as late apoptotic cells at 1 uM incubated for 48 hrs by Annexin V-FITC/propidium iodide staining based flow cytometry analysis (reference value: 1.00%); assay type: functional
A549 [21] = assay: Induction of apoptosis in human A549 cells assessed as necrotic cells at 0.5 uM incubated for 48 hrs by Annexin V-FITC/propidium iodide staining based flow cytometry analysis (reference value: 0.30%); assay type: functional
A549 [22] = assay: Induction of apoptosis in human A549 cells assessed as necrotic cells at 1 uM incubated for 48 hrs by Annexin V-FITC/propidium iodide staining based flow cytometry analysis (reference value: 0.30%); assay type: functional
A549 [23] = assay: Induction of apoptosis in human A549 cells assessed as increase in caspase 3 protein expression at 0.5 to 1 uM measured after 48 hrs by Western blot assay; assay type: functional, cell-based; conditions: dose 0.5-1 µM
A549 [24] = assay: Induction of apoptosis in human A549 cells assessed as increase in cleaved caspase 3 protein expression at 0.5 to 1 uM measured after 48 hrs by Western blot assay; assay type: functional, cell-based; conditions: dose 0.5-1 µM
A549 [25] = assay: Induction of apoptosis in human A549 cells assessed as increase in PARP protein expression at 0.5 to 1 uM measured after 48 hrs by Western blot assay; assay type: functional, cell-based; conditions: dose 0.5-1 µM
A549 [26] = assay: Induction of apoptosis in human A549 cells assessed as increase in cleaved PARP protein expression at 0.5 to 1 uM measured after 48 hrs by Western blot assay; assay type: functional, cell-based; conditions: dose 0.5-1 µM
A549 [27] = assay: Induction of apoptosis in human A549 cells assessed as upregulation of caspase 9 protein expression at 0.5 to 1 uM measured after 48 hrs by Western blot assay; assay type: functional, cell-based; conditions: dose 0.5-1 µM
A549 [28] = assay: Induction of apoptosis in human A549 cells assessed as increase in cleaved caspase 7 protein expression at 0.5 to 1 uM measured after 48 hrs by Western blot assay; assay type: functional, cell-based; conditions: dose 0.5-1 µM
A549 [29] = assay: Induction of apoptosis in human A549 cells assessed as increase in Bax protein expression at 0.5 to 1 uM measured after 48 hrs by Western blot assay; assay type: functional, cell-based; conditions: dose 0.5-1 µM
A549 [30] = assay: Induction of apoptosis in human A549 cells assessed as increase in P53 protein expression at 0.5 to 1 uM measured after 48 hrs by Western blot assay; assay type: functional, cell-based; conditions: dose 0.5-1 µM
A549 [31] = assay: Induction of apoptosis in human A549 cells assessed as decrease in caspase 7 protein expression at 0.5 to 1 uM measured after 48 hrs by Western blot assay; assay type: functional, cell-based; conditions: dose 0.5-1 µM
A549 [32] = assay: Induction of apoptosis in human A549 cells assessed as decrease in Bcl-2 protein expression at 0.5 to 1 uM measured after 48 hrs by Western blot assay; assay type: functional, cell-based; conditions: dose 0.5-1 µM
A549 [33] = assay: Antiproliferative activity against human A549 cells at >1.35 uM incubated for 48 hrs by RTCA analysis; assay type: functional, cell-based
NRK-52E = assay: Antiproliferative activity against rat NRK-52E cells at upto 10.75 uM incubated for 48 hrs by RTCA analysis; assay type: toxicity, cell-based
A549 [34] = assay: Inhibition of colony formation in human A549 cells at 2 uM incubated for 48 hrs followed by culture medium replacement for every 72 hrs and measured after 14 days by crystal violet staining based analysis relative to control; assay type: functional; design: scale not given: the % may be the effect or the level left; conditions: time 14 day
A549 [35] = assay: Antitumor activity against human A549 cells xenografted in BALB/c nude mouse assessed as reduction in tumor size at 2 mg/kg, ip administered once daily for 14 days and measured every day (reference value: 2100 mm3); assay type: functional; conditions: time 14 day
[36] = Toxicity in BALB/c mouse xenografted with human A549 cells assessed as effect on body weight at 0.4 to 2 mg/kg, ip administered once daily for 14 days and measured every day; assay type: organism-based; conditions: in vivo, 336 h, dose 0.4-2 mg/kg, time 14 day
A549 [37] = assay: Antitumor activity against human A549 cells xenografted in BALB/c nude mouse assessed as necrotic cells at 2 mg/kg, ip administered once daily for 14 days by H and E staining; assay type: functional, organism-based; conditions: time 14.0 day
A549 [38] = assay: Inhibition of mitochondrial respiration in human A549 cells assessed as decrease in basal respiration at 2 uM in presence of oligomycin/FCCP/antimycin A /rotenone measured upto 75 mins by seahorse XFe24 flux analyzer; assay type: functional, cell-based
A549 [39] = assay: Inhibition of mitochondrial respiration in human A549 cells assessed as decrease in proton leak at 2 uM in presence of oligomycin/FCCP/antimycin A/rotenone measured upto 75 mins by seahorse XFe24 flux analyzer; assay type: functional, cell-based
A549 [40] = assay: Inhibition of mitochondrial respiration in human A549 cells assessed as decrease in maximal respiration at 2 uM in presence of oligomycin/FCCP/antimycin A /rotenone measured upto 75 mins by seahorse XFe24 flux analyzer; assay type: functional, cell-based
A549 [41] = assay: Inhibition of mitochondrial respiration in human A549 cells assessed as decrease in spare capacity at 2 uM in presence of oligomycin/FCCP/antimycin A /rotenone measured upto 75 mins by seahorse XFe24 flux analyzer; assay type: functional, cell-based
A549 [42] = assay: Inhibition of mitochondrial respiration in human A549 cells assessed as reduction in respiratory control ratio by seahorse XFe24 flux analyzer; assay type: functional, cell-based; conditions: dose 0.5-2 µM, DDE = dose-dependent effect
A549 [43] = assay: Inhibition of mitochondrial membrane potential in human A549 cells by JC-1 staining based confocal microscopy; assay type: functional, cell-based; conditions: dose 1.0 µM, DDE = dose-dependent effect
A549 [44] = assay: Inhibition of mitochondrial membrane potential in human A549 cells by JC-1 staining based high-content screening method; assay type: functional, cell-based; conditions: dose 0.5-2 µM, DDE = dose-dependent effect
A549 [45] = assay: Induction of morphological changes in human A549 cells assessed as swollen microstructure of mitochondria by transmission electron microscopy; assay type: functional, cell-based
A549 [46] = assay: Induction of morphological changes in human A549 cells assessed as vacuolated microstructure of mitochondria by transmission electron microscopy; assay type: functional, cell-based
A549 [47] = assay: Induction of apoptosis in human A549 cells assessed as rate of apoptotic cells at 0.5 to 1 uM incubated for 48 hrs by Annexin V-FITC/propidium iodide staining based flow cytometry analysis (reference value: 2.7 %); assay type: functional; conditions: dose 0.5-1 µM
A549 [48] = assay: Inhibition of colony formation in human A549 cells incubated for 48 hrs followed by culture medium replacement for every 72 hrs and measured after 7 days by crystal violet staining based analysis; assay type: functional, cell-based; conditions: dose 1-2 µM, time 7.0 day, DDE = dose-dependent effect
A549 [49] = assay: Induction of mitochondrial membrane potential loss in human A549 cells assessed as reduction in ATP levels at 1 to 2 uM incubated for 12 hrs in presence of oligomycin/FCCP/antimycin A /rotenone by seahorse XFe24 flux analyzer; assay type: functional, cell-based; conditions: dose 1-2 µM

Q: Which results are given for `O=C(c1ccc2c(c1)OCO2)c1cccc2c3ccccc3n(-c3ncccn3)c12`?
A: IC50 (A549 [1]): 820 nM; inhibition at 10 µM (A549 [2]): 78.6%; Activity (A549 [3]): Active; Activity (A549 [4]): Dde; IC50 at 48 h [5]: 1250 nM; Activity (A549 [6]): 59.84%; Activity (A549 [7]): 29.76%; Activity (A549 [8]): 13.84%; Activity (A549 [9]): 14.11%; Activity (A549 [10]): 23.16%; Activity (A549 [11]): 65.62%; Activity (A549 [12]): Active; Activity (A549 [13]): Active; Activity (A549 [14]): Dde; viability at 0.5 µM (A549 [15]): 93.4%; viability at 1 µM (A549 [16]): 78.9%; Activity (A549 [17]): 2.71%; Activity (A549 [18]): 12.3%; Activity (A549 [19]): 2.17%; Activity (A549 [20]): 6.98%; Activity (A549 [21]): 1.74%; Activity (A549 [22]): 1.8%; Activity (A549 [23]): Active; Activity (A549 [24]): Active; Activity (A549 [25]): Active; Activity (A549 [26]): Active; Activity (A549 [27]): Active; Activity (A549 [28]): Active; Activity (A549 [29]): Active; Activity (A549 [30]): Active; Activity (A549 [31]): Active; Activity (A549 [32]): Active; Activity (A549 [33]): Active; Activity (NRK-52E): Non-Toxic; Activity (A549 [34]): 69%; Activity (A549 [35]): 1255 mm3; Activity [36]: Non-Toxic; Activity (A549 [37]): Active; inhibition (A549 [38]): Active; inhibition (A549 [39]): Active; inhibition (A549 [40]): Active; inhibition (A549 [41]): Active; inhibition (A549 [42]): Dde; inhibition (A549 [43]): Dde; inhibition (A549 [44]): Dde; Activity (A549 [45]): Active; Activity (A549 [46]): Active; Activity (A549 [47]): 21.1%; inhibition (A549 [48]): Dde; Activity (A549 [49]): Active

Q: With `COc1ccc(C(=O)c2cccc3c4ccccc4n(-c4ncccn4)c23)cc1OC` as the compound, how does the IC50 (A549 [1]) read?
A: Its IC50 is 3100 nM.

Q: And the inhibition at 10 µM (A549 [2])?
A: Its inhibition at 10 µM is 50%.

Q: And the Activity (A549 [3])?
A: Its Activity is “Active”.

Q: Which IC50 (A549 [1]) does the source give for `COc1cccc(C(=O)c2cccc3c4ccccc4n(-c4ncccn4)c23)c1` here?
A: The IC50 was 2390 nM.

Q: What about the inhibition at 10 µM (A549 [2]) of the same compound?
A: The inhibition at 10 µM was 50%.

Q: And the Activity (A549 [3])?
A: The Activity was “Active”.
